Reference: PubChem BioAssay AID330 (DTP/NCI, 2004)
Values joined by “and” are separate entries in the source; they are usually repeats but may differ in a detail not shown here. Identical values can stand only once. Toxic doses and inconclusive results are not listed.

Tested on: P388 leukemia ip, CD2F1 mice, survival T/C
Assay: NCI In Vivo Anticancer Drug Screen. Data for tumor model P388 Leukemia (intraperitoneal) in CD2F1 (CDF1) mice
Conditions: endpoint: median survival time, higher = longer survival
Procedure, shortened: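 Mice carrying the transplanted tumor received test compound or vehicle. Survival was recorded in each group, and the value is the treated-group measurement divided by that of the vehicle-treated control group.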

[1] = dose: 60.0 mg/kg/injection, schedule: Q01DX005 (ip), vehicle: saline
[2] = dose: 120.0 mg/kg/injection, schedule: Q01DX005 (ip), vehicle: saline
[3] = dose: 6.25 mg/kg/injection, schedule: Q01DX009 (ip), vehicle: saline with Tween-80
[4] = dose: 12.5 mg/kg/injection, schedule: Q01DX009 (ip), vehicle: saline with Tween-80
[5] = dose: 25.0 mg/kg/injection, schedule: Q01DX009 (ip), vehicle: saline with Tween-80
[6] = dose: 100.0 mg/kg/injection, schedule: Q01DX009 (ip), vehicle: saline
[7] = dose: 200.0 mg/kg/injection, schedule: Q01DX009 (ip), vehicle: saline
[8] = dose: 50.0 mg/kg/injection, schedule: Q01DX009 (ip), vehicle: saline with Tween-80
[9] = dose: 100.0 mg/kg/injection, schedule: Q01DX009 (ip), vehicle: saline with Tween-80
[10] = dose: 200.0 mg/kg/injection, schedule: Q01DX009 (ip), vehicle: saline with Tween-80
[11] = dose: 50.0 mg/kg/injection, schedule: Q01DX009 (ip), vehicle: saline
[12] = dose: 60.0 mg/kg/injection, schedule: Q01DX005 (ip), vehicle: saline with Tween-80
[13] = dose: 120.0 mg/kg/injection, schedule: Q01DX005 (ip), vehicle: saline with Tween-80
[14] = dose: 240.0 mg/kg/injection, schedule: Q01DX005 (ip), vehicle: saline with Tween-80
[15] = dose: 400.0 mg/kg/injection, schedule: Q01DX009 (ip), vehicle: saline with Tween-80

O=C(Nc1ccc(CCc2ccc(NC(=O)C34CC5CC(CC(C5)C3)C4)cc2)cc1)C12CC3CC(CC(C3)C1)C2
T/C (dose: 50.0 mg/kg/injection, schedule: Q01DX005 (ip), vehicle: saline with Tween-80): 96 % of control | T/C (dose: 100.0 mg/kg/injection, schedule: Q01DX005 (ip), vehicle: saline with Tween-80): 90 % of control

CN(C)CC(CN(C)C)C(=O)C(C)(C)C
T/C (dose: 3.8 mg/kg/injection, schedule: Q01DX005 (ip), vehicle: saline): 99 % of control | T/C (dose: 7.5 mg/kg/injection, schedule: Q01DX005 (ip), vehicle: saline): 96 % of control | T/C (dose: 15.0 mg/kg/injection, schedule: Q01DX005 (ip), vehicle: saline): 93 % of control | T/C (dose: 30.0 mg/kg/injection, schedule: Q01DX005 (ip), vehicle: saline): 105 % of control | T/C [1]: 100 % of control and 104 % of control | T/C [2]: 104 % of control and 110 % of control

O=C1c2ccccc2CCCC12OC2c1ccccn1 (centres undefined)
T/C (dose: 25.0 mg/kg/injection, schedule: Q01DX009 (ip), vehicle: Klucel (hydroxypropylcellulose) (HPC)): 98 % of control | T/C (dose: 50.0 mg/kg/injection, schedule: Q01DX009 (ip), vehicle: Klucel (hydroxypropylcellulose) (HPC)): 106 % of control | T/C (dose: 100.0 mg/kg/injection, schedule: Q01DX009 (ip), vehicle: Klucel (hydroxypropylcellulose) (HPC)): 98 % of control

CC(C)(O)C1CC(=O)C(C)(C2C(O)CC3(C)C4CC=C5C(CCC(O)C5(C)C)C4(C)C(=O)CC23C)O1 (centres undefined)
T/C (dose: 9.63 mg/kg/injection, schedule: Q01DX005 (ip), vehicle: saline + alcohol): 113 % of control | T/C (dose: 19.25 mg/kg/injection, schedule: Q01DX005 (ip), vehicle: saline + alcohol): 102 % of control | T/C (dose: 38.5 mg/kg/injection, schedule: Q01DX005 (ip), vehicle: saline + alcohol): 102 % of control | T/C (dose: 77.0 mg/kg/injection, schedule: Q01DX005 (ip), vehicle: saline + alcohol): 97 % of control

Cc1cc(N(CC(C)Br)CC(C)Br)ccc1N=Nc1ccccc1C(=O)O (centres undefined)
T/C [3]: 196 % of control | T/C [4]: 108 % of control | T/C (dose: 12.5 mg/kg/injection, schedule: Q01DX009 (oral), vehicle: saline with Tween-80): 115 % of control | T/C (dose: 50.0 mg/kg/injection, schedule: Q01DX009 (oral), vehicle: saline with Tween-80): 157 % of control | T/C (dose: 100.0 mg/kg/injection, schedule: Q01DX009 (oral), vehicle: saline with Tween-80): 89 % of control

CC(=O)OCC1OC(S[As](C2CCCCC2)C2CCCCC2)C(OC(C)=O)C(OC(C)=O)C1OC(C)=O (centres undefined)
T/C (dose: 25.0 mg/kg/injection, schedule: Q04DX003 (ip), vehicle: Klucel (hydroxypropylcellulose) (HPC)): 109 % of control | T/C (dose: 50.0 mg/kg/injection, schedule: Q04DX003 (ip), vehicle: Klucel (hydroxypropylcellulose) (HPC)): 116 % of control

CCC(C(=O)Nc1ccccc1-c1ccccc1)c1ccccc1 (centres undefined)
T/C [3]: 110 % of control | T/C [4]: 101 % of control | T/C [5]: 96 % of control | T/C [6]: 96 % of control | T/C [7]: 87 % of control

CCCC1C=C(c2ccccc2)N=C(c2ccccc2)S1 (centres undefined)
T/C [8]: 98 % of control | T/C [9]: 101 % of control | T/C [10]: 90 % of control

CCOP(=O)(OCC)C1OCCCO1
T/C [11]: 102 % of control | T/C [6]: 98 % of control | T/C [7]: 106 % of control

O=C(NCCNC(=O)[C@H]1CCCN1)[C@H]1CCCN1
T/C [1]: 98 % of control | T/C [2]: 91 % of control | T/C (dose: 240.0 mg/kg/injection, schedule: Q01DX005 (ip), vehicle: saline): 93 % of control

COc1cccc2c1C(=O)c1c(O)c3c(c(O)c1C2=O)C[C@@](O)(C(=O)COC(=O)CCCCC(=O)O)C[C@@H]3OC1CC(NC(=O)C(F)(F)F)C(O)C(C)O1 (some centres undefined)
T/C (dose: 9.38 mg/kg/injection, schedule: Q04DX003 (ip), vehicle: other): 118 % of control | T/C (dose: 18.75 mg/kg/injection, schedule: Q04DX003 (ip), vehicle: other): 123 % of control | T/C (dose: 18.75 mg/kg/injection, schedule: Q04DX003 (ip), vehicle: saline with Tween-80): 119 % of control | T/C (dose: 37.5 mg/kg/injection, schedule: Q04DX003 (ip), vehicle: other): 124 % of control | T/C (dose: 75.0 mg/kg/injection, schedule: Q04DX003 (ip), vehicle: other): 156 % of control | T/C (dose: 150.0 mg/kg/injection, schedule: Q04DX003 (ip), vehicle: other): 194 % of control

Cc1ccc2c(c1)C1(SC(C)C(=O)N1c1ccc(Br)cc1)C(=O)N2 (centres undefined)
T/C [12]: 94 % of control | T/C [13]: 96 % of control | T/C [14]: 97 % of control

O=C1OC(C(O)C(O)CO)C(O)C1O (centres undefined)
T/C (dose: 50.0 mg/kg/injection, schedule: Q01DX005 (ip), vehicle: saline): 108 % of control | T/C (dose: 100.0 mg/kg/injection, schedule: Q01DX005 (ip), vehicle: saline): 100 % of control | T/C (dose: 200.0 mg/kg/injection, schedule: Q01DX005 (ip), vehicle: saline): 95 % of control

CCOC(=O)C1=C(C)NC(C)=C(C(=O)OCC)C1c1ccc(OC)c(OC)c1
T/C (dose: 25.0 mg/kg/injection, schedule: Q01DX009 (ip), vehicle: other): 106 % of control | T/C (dose: 50.0 mg/kg/injection, schedule: Q01DX009 (ip), vehicle: other): 103 % of control | T/C (dose: 100.0 mg/kg/injection, schedule: Q01DX009 (ip), vehicle: other): 97 % of control | T/C (dose: 200.0 mg/kg/injection, schedule: Q01DX009 (ip), vehicle: other): 97 % of control | T/C (dose: 400.0 mg/kg/injection, schedule: Q01DX009 (ip), vehicle: other): 88 % of control

C=C(CN1CCCC1)C(=O)c1ccc(OC)cc1
T/C (dose: 0.93 mg/kg/injection, schedule: Q01DX005 (ip), vehicle: saline): 97 % of control | T/C (dose: 1.87 mg/kg/injection, schedule: Q01DX005 (ip), vehicle: saline): 117 % of control | T/C (dose: 3.75 mg/kg/injection, schedule: Q01DX005 (ip), vehicle: saline): 108 % of control

O=C1CCSCC1
T/C [8]: 99 % of control | T/C [9]: 113 % of control | T/C [10]: 100 % of control | T/C [15]: 98 % of control

O=C1C=C(NCc2nc3ccccc3[nH]2)C(c2ccccc2)N1c1ccccc1 (centres undefined)
T/C (dose: 50.0 mg/kg/injection, schedule: Q01DX005 (ip), vehicle: Klucel (hydroxypropylcellulose) (HPC)): 100 % of control | T/C (dose: 100.0 mg/kg/injection, schedule: Q01DX005 (ip), vehicle: Klucel (hydroxypropylcellulose) (HPC)): 96 % of control | T/C (dose: 200.0 mg/kg/injection, schedule: Q01DX005 (ip), vehicle: Klucel (hydroxypropylcellulose) (HPC)): 93 % of control

CCOC(=O)CCc1nc(C)ncc1C(=O)OCC
T/C [4]: 104 % of control | T/C [5]: 106 % of control | T/C [8]: 100 % of control | T/C [11]: 91 % of control | T/C [7]: 87 % of control

CCCCCCOCCOCCCN1C(=O)C2C3C=CC(C3)C2(Cl)C1=O (centres undefined)
T/C (dose: 50.0 mg/kg/injection, schedule: Q01DX005 (ip), vehicle: distilled water + Tween-80 + alcohol): 102 % of control | T/C (dose: 100.0 mg/kg/injection, schedule: Q01DX005 (ip), vehicle: distilled water + Tween-80 + alcohol): 105 % of control | T/C (dose: 200.0 mg/kg/injection, schedule: Q01DX005 (ip), vehicle: distilled water + Tween-80 + alcohol): 100 % of control

N#Cc1ccccc1-n1c(=O)c2cc3c(=O)n(-c4ccccc4C#N)c(=O)c3cc2c1=O
T/C [5]: 100 % of control and 103 % of control | T/C [8]: 95 % of control and 97 % of control | T/C [9]: 100 % of control and 103 % of control | T/C [10]: 102 % of control and 95 % of control | T/C [15]: 100 % of control and 96 % of control

COc1ccc(N2C(=O)C(C)SC23C(=O)Nc2ccc(C)cc23)cc1 (centres undefined)
T/C [12]: 109 % of control | T/C [13]: 102 % of control | T/C [14]: 119 % of control
